Experimental data published in patent publication US20160367623A1, “AGONISTS OF GUANYLATE CYCLASE USEFUL FOR THE TREATMENT OF GASTROINTESTINAL DISORDERS, INFLAMMATION, CANCER AND OTHER DISORDERS” (priority 2015, published 2016).
Bridge positions count the residues as written; N and C are the ends. Ends that are not written are not given here.

Tested on: patients with chronic idiopathic constipation (CIC)
Test: Second phase 3 CIC trial: change from baseline in stool consistency (BSFS)
Assay type: in vivo, human
[1] = 3 mg, Week 7, All Randomized (includes Duplicate Patients)
[2] = 3 mg, Week 7, ITT Population-Excluding Duplicate Patients
[3] = 3 mg, Week 8, All Randomized (includes Duplicate Patients)
[4] = 3 mg, Week 8, ITT Population-Excluding Duplicate Patients
[5] = 3 mg, Week 9, All Randomized (includes Duplicate Patients)
[6] = 3 mg, Week 9, ITT Population-Excluding Duplicate Patients
[7] = 3 mg, Week 10, All Randomized (includes Duplicate Patients)
[8] = 3 mg, Week 10, ITT Population-Excluding Duplicate Patients
[9] = 3 mg, Week 11, All Randomized (includes Duplicate Patients)
[10] = 3 mg, Week 11, ITT Population-Excluding Duplicate Patients
[11] = 3 mg, Week 12, All Randomized (includes Duplicate Patients)
[12] = 3 mg, Week 12, ITT Population-Excluding Duplicate Patients
[13] = 3 mg, overall average estimate across the 12-week treatment period, All Randomized (includes Duplicate Patients)
[14] = 3 mg, overall average estimate across the 12-week treatment period, ITT Population
[15] = 3 mg, overall average estimate across the 12-week treatment period, ITT Population-Excluding Duplicate Patients
[16] = 6 mg, Post-Treatment Week 13, All Randomized (includes Duplicate Patients)
[17] = 6 mg, Post-Treatment Week 13, ITT Population
[18] = 6 mg, Post-Treatment Week 13, ITT Population-Excluding Duplicate Patients
[19] = 6 mg, Post-Treatment Week 14, All Randomized (includes Duplicate Patients)
[20] = 6 mg, Post-Treatment Week 14, ITT Population

Substance: Asn^1-Asp^2-Glu^3-Cys^4-Glu^5-Leu^6-Cys^7-Val^8-Asn^9-Val^10-Ala^11-Cys^12-Thr^13-Gly^14-Cys^15-Leu^16 (NDECELCVNVACTGCL; disulfide 4-12, 7-15) [Plecanatide, uroguanylin analogue, guanylate cyclase-C agonist; (C4:C12, C7:C15) bicycle peptide]
- Change from Baseline in Stool Consistency, Difference from Placebo [1]: 0.60
- Change from Baseline in Stool Consistency, LS Mean (SE) [1]: 1.46 (0.072)
- Change from Baseline in Stool Consistency, Difference from Placebo (3 mg, Week 7, ITT Population): 0.60
- Change from Baseline in Stool Consistency, LS Mean (SE) (3 mg, Week 7, ITT Population): 1.49 (0.074)
- Change from Baseline in Stool Consistency, Mean (SD) (3 mg, Week 7, ITT Population): 1.58 (1.447)
- Change from Baseline in Stool Consistency, Difference from Placebo [2]: 0.61
- Change from Baseline in Stool Consistency, LS Mean (SE) [2]: 1.50 (0.075)
- Change from Baseline in Stool Consistency, Mean (SD) [2]: 1.60 (1.452)
- Change from Baseline in Stool Consistency, Difference from Placebo [3]: 0.67
- Change from Baseline in Stool Consistency, LS Mean (SE) [3]: 1.58 (0.072)
- Change from Baseline in Stool Consistency, Difference from Placebo (3 mg, Week 8, ITT Population): 0.66
- Change from Baseline in Stool Consistency, LS Mean (SE) (3 mg, Week 8, ITT Population): 1.60 (0.075)
- Change from Baseline in Stool Consistency, Mean (SD) (3 mg, Week 8, ITT Population): 1.71 (1.496)
- Change from Baseline in Stool Consistency, Difference from Placebo [4]: 0.67
- Change from Baseline in Stool Consistency, LS Mean (SE) [4]: 1.60 (0.075)
- Change from Baseline in Stool Consistency, Mean (SD) [4]: 1.71 (1.500)
- Change from Baseline in Stool Consistency, Difference from Placebo [5]: 0.68
- Change from Baseline in Stool Consistency, LS Mean (SE) [5]: 1.55 (0.073)
- Change from Baseline in Stool Consistency, Difference from Placebo (3 mg, Week 9, ITT Population): 0.68
- Change from Baseline in Stool Consistency, LS Mean (SE) (3 mg, Week 9, ITT Population): 1.57 (0.075)
- Change from Baseline in Stool Consistency, Mean (SD) (3 mg, Week 9, ITT Population): 1.68 (1.468)
- Change from Baseline in Stool Consistency, Difference from Placebo [6]: 0.66
- Change from Baseline in Stool Consistency, LS Mean (SE) [6]: 1.57 (0.076)
- Change from Baseline in Stool Consistency, Mean (SD) [6]: 1.68 (1.468)
- Change from Baseline in Stool Consistency, Difference from Placebo [7]: 0.62
- Change from Baseline in Stool Consistency, LS Mean (SE) [7]: 1.52 (0.073)
- Change from Baseline in Stool Consistency, Difference from Placebo (3 mg, Week 10, ITT Population): 0.61
- Change from Baseline in Stool Consistency, LS Mean (SE) (3 mg, Week 10, ITT Population): 1.54 (0.075)
- Change from Baseline in Stool Consistency, Mean (SD) (3 mg, Week 10, ITT Population): 1.65 (1.539)
- Change from Baseline in Stool Consistency, Difference from Placebo [8]: 0.61
- Change from Baseline in Stool Consistency, LS Mean (SE) [8]: 1.54 (0.076)
- Change from Baseline in Stool Consistency, Mean (SD) [8]: 1.65 (1.548)
- Change from Baseline in Stool Consistency, Difference from Placebo [9]: 0.55
- Change from Baseline in Stool Consistency, LS Mean (SE) [9]: 1.48 (0.073)
- Change from Baseline in Stool Consistency, Difference from Placebo (3 mg, Week 11, ITT Population): 0.54
- Change from Baseline in Stool Consistency, LS Mean (SE) (3 mg, Week 11, ITT Population): 1.50 (0.075)
- Change from Baseline in Stool Consistency, Mean (SD) (3 mg, Week 11, ITT Population): 1.58 (1.598)
- Change from Baseline in Stool Consistency, Difference from Placebo [10]: 0.54
- Change from Baseline in Stool Consistency, LS Mean (SE) [10]: 1.51 (0.076)
- Change from Baseline in Stool Consistency, Mean (SD) [10]: 1.59 (1.595)
- Change from Baseline in Stool Consistency, Difference from Placebo [11]: 0.57
- Change from Baseline in Stool Consistency, LS Mean (SE) [11]: 1.57 (0.073)
- Change from Baseline in Stool Consistency, Difference from Placebo (3 mg, Week 12, ITT Population): 0.58
- Change from Baseline in Stool Consistency, LS Mean (SE) (3 mg, Week 12, ITT Population): 1.60 (0.075)
- Change from Baseline in Stool Consistency, Mean (SD) (3 mg, Week 12, ITT Population): 1.69 (1.480)
- Change from Baseline in Stool Consistency, Difference from Placebo [12]: 0.58
- Change from Baseline in Stool Consistency, LS Mean (SE) [12]: 1.61 (0.076)
- Change from Baseline in Stool Consistency, Mean (SD) [12]: 1.70 (1.476)
- Change from Baseline in Stool Consistency, Difference from Placebo [13]: 0.63
- Change from Baseline in Stool Consistency, LS Mean (SE) [13]: 1.48 (0.058)
- Change from Baseline in Stool Consistency, Difference from Placebo [14]: 0.62
- Change from Baseline in Stool Consistency, LS Mean (SE) [14]: 1.49 (0.060)
- Change from Baseline in Stool Consistency, Difference from Placebo [15]: 0.62
- Change from Baseline in Stool Consistency, LS Mean (SE) [15]: 1.50 (0.061)
- Change from Baseline in Stool Consistency, Difference from Placebo [16]: 0.09
- Change from Baseline in Stool Consistency, LS Mean (SE) [16]: 1.08 (0.070)
- Change from Baseline in Stool Consistency, Mean (SD) [16]: 1.03 (1.408)
- Change from Baseline in Stool Consistency, Difference from Placebo [17]: 0.09
- Change from Baseline in Stool Consistency, LS Mean (SE) [17]: 1.08 (0.071)
- Change from Baseline in Stool Consistency, Mean (SD) [17]: 1.04 (1.410)
- Change from Baseline in Stool Consistency, Difference from Placebo [18]: 0.09
- Change from Baseline in Stool Consistency, LS Mean (SE) [18]: 1.08 (0.072)
- Change from Baseline in Stool Consistency, Mean (SD) [18]: 1.04 (1.414)
- Change from Baseline in Stool Consistency, Difference from Placebo [19]: 0.07
- Change from Baseline in Stool Consistency, LS Mean (SE) [19]: 1.06 (0.072)
- Change from Baseline in Stool Consistency, Mean (SD) [19]: 1.04 (1.393)
- Change from Baseline in Stool Consistency, Difference from Placebo [20]: 0.06
- Change from Baseline in Stool Consistency, LS Mean (SE) [20]: 1.07 (0.074)
- Change from Baseline in Stool Consistency, Mean (SD) [20]: 1.06 (1.354)
- Change from Baseline in Stool Consistency, Difference from Placebo (6 mg, Post-Treatment Week 14, ITT Population-Excluding Duplicate Patients): 0.06
